From paper PMC4595849, “Rational Design of Benzylidenehydrazinyl-Substituted Thiazole Derivatives as Potent Inhibitors of Human Dihydroorotate Dehydrogenase with in Vivo Anti-arthritic Activity” (Scientific Reports, 2015) come the findings set out here.

The subject of series [1] is Wistar rats with collagen-induced arthritis (CIA). Kind of series: collagen-induced arthritis (CIA) rat efficacy study. Conditions: for arthritis score: day 28, maximum score 8. It is filed as in vivo. As to the method:
Compound 19 and methotrexate were injected intraperitoneally once per day for 28 days into the Wistar rats with collagen-induced arthritis (CIA). The swelling scores of the arthritis and morphological observations of the rats’ joint tissues were employed to examine the anti-arthritic effect of compound 19 (Fig. 5). With the onset of arthritis, the swelling scores were an indication of the disease states. The maximum score was 8, which is the sum of the scores from both hind paws of each rat and indicates a severe arthritis state. During the experiment, the control rats had normal eating patterns, shiny hair and continuously increasing body weight.
Adult male Wistar rats (120–140 g) were purchased from Shanghai SLRC Laboratory animal company and housed in standard pathogen-free cages. The environment was climate-controlled (20–25 °C, 50–60% relative humidity) with a 12-hour light and 12-hour dark cycle as described previously. Sterilized food and water were provided naturally. All procedures involving animals conform to the Chinese government guidelines for animal experiments, and were conducted with approval of the Institutional Animal Care and Use Committee of East China University of Science & Technology. Bovine type II collagen (CII, Chondrex, USA) was emulsified in the same manner as that conducted previously to get the CIA model. Specifically, 49 rats were randomly assigned into five groups: normal control (solvent, i.p., n = 6), CIA model (solvent, i.p., n = 11), Methotrexate-treated (0.3 mg/kg, i.p., n = 10), compound 19-treated (5 mg/kg, i.p., n = 11) and compound 19-treated (30 mg/kg, i.p., n = 11) groups. Methotrexate, reported to has a therapeutic effect on rheumatoid arthritis, was used as the positive control in this study. The main workflows of this experiment were consistent with that reported recently. During the 28 days of the experiment, compound 19 (5 mg/kg and 30 mg/kg) and Methotrexate (0.3 mg/kg) were injected intraperitoneally once every day. At the same time, the normal control group and model group were administered the same amount of solution. The solvent of 19 was made up of 5% DMSO, 45% saline and 50% PEG400.
In this study, the clinical-mimic arthritis was observed and the severity was assessed by the same criteria as that applied in reference 65: 0, normal, without any swelling; 1, mild swelling; 2, swelling; 3, significant swelling; 4, severe swelling. The maximum score was 8, which was the sum of the scores from both hind paws of each rat. When arthritic signs appeared, the incidence and severity of the arthritis in rats with different treatments were evaluated via arthritis scores recorded every 2 days under blinded conditions. Measurement of body weight was taken every 3 days. All Wistar rats were killed after 28 day’s trails. Pathological detections against the whole knee joints of the rats were conducted using the same method as described previously. Mean ± standard deviation […] was applied to present the data in this study. SPSS was used to evaluate the statistical significance of differences among the groups. P ≤ 0.05 was the threshold to be statistically significant.

Series [2] addresses T1, hDHODH (Met30-Arg396) (Homo sapiens, UniProt Q02127).
T1 construct: hDHODH (Met30-Arg396) was expressed and purified in the same manner as described in our recently published work; made in house
Kind of series: hDHODH enzyme inhibition, DCIP assay. It is filed as biochemical. From the text:
The plasmid coding for human DHODH was kindly provided by Prof. Jon Clardy (Harvard Medical School)[7]. hDHODH (Met30-Arg396) was expressed and purified in the same manner as described in our recently published work[38]. We determined the effect of benzylidenehydrazinyl-substituted thiazole derivatives to inhibit hDHODH by using a DCIP assay method.

A short description of series [3]: single dose pharmacokinetic study in rats (IV and PO). Conditions: male, Sprague-Dawley, rat, plasma, 1 mg/kg.
Protocol: (§1) Male Sprague-Dawley rats were raised according to the Guide for the Care and Use of Laboratory Animals. […] Heparin sodium was applied as the anticoagulant of the blood samples. Based on the LC/MS/MS quantitative data, pharmacokinetic parameters were analyzed using WinNonlin5.2 with noncompartment model.
The nature of series [4]: in vivo. Conditions: male, Sprague-Dawley, rat, po, 10 mg/kg.
Protocol: as §1

Values joined by “and” are separate entries in the source; they are usually repeats but may differ in a detail not shown here. Equal values may be shown once.

T1 sequence (Q02127 29-395): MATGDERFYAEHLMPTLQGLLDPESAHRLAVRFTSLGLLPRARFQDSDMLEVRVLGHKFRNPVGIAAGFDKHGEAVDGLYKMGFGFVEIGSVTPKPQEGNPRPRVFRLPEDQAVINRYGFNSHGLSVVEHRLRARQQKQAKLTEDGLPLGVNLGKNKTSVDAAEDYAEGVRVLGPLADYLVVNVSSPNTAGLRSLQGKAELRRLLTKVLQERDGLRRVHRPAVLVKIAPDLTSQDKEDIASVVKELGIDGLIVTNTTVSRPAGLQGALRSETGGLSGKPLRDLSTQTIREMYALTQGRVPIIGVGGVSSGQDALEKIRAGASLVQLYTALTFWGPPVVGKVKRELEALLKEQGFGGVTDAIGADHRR

`O=C(O)c1ccccc1/C=N/Nc1nc(-c2ccccc2Cl)cs1` [Compound 19, (E)-2-((2-(4-(2-chlorophenyl)thiazol-2-yl)hydrazono)methyl)benzoic acid]: the arthritis score entry in series [1] (5 mg/kg i.p. daily) is listed as “around 5”; in series [1] (30 mg/kg i.p. daily), roughly 3. Further, in series [1] (5 and 30 mg/kg i.p. daily for 28 days), the “anti-arthritic effect (in words)” value is recorded as “significant dose-dependent anti-arthritic effect”. The “histological changes in joint tissues (H&E)” value in series [1] (both dosages, compared to CIA rats) is reported as “evidently alleviated”. For the same compound, in series [1] (i.p. daily for 28 days, versus model group), the “influence on body weight” value is “no obvious influence on increase in body weight”. Moreover, the “inhibition of hDHODH (in words)” value in series [2] was “IC50 values in the double-digit nanomolar range”. In series [2] (LLE = pIC50 − clogP), this compound had an LLE of 3.59. The “fold increase in potency compared to 18” value in series [2] (hDHODH IC50 relative to hydroxy-substituted derivative 18) is reported as 43 fold. The IC50 – broadly, the concentration needed to halve the response being measured – in series [2] (hDHODH, mean ± SD of three independent experiments, IC50 measured if inhibition rate at 10 μM was larger than 50%) is 32 nM and 32.2 nM. Also, the half-life (commonly how long it takes for the measured level to halve) in series [3] is 9.69 ± 3.15 h. Moreover, the Cmax (as a rule, the peak of the concentration-time curve) in series [4] came out at 5310 ± 1910 ng/mL.
